In article PMC3172300, “Modulation of Catalytic Activity in Multi-Domain Protein Tyrosine Phosphatases” (PLoS ONE, 2011):
Where two headings read alike, the source gives them in different places. Square brackets hold non-standard residues; d marks the D form. Ends that are not written are not given here. Peptide text beside a SMILES is read from it. pY = N[C@@H](Cc1ccc(OP(=O)(O)O)cc1)C(=O)O

Key:
DLAR D1 = target: T1, DLAR D1 (Drosophila melanogaster, UniProt P16621); test: Dephosphorylation of phosphotyrosine peptides (malachite green), DLAR D1; assay type: biochemical; details: for Km / Vmax / Kcat / Kcat/Km: 0.01 µM protein; for Km / Kcat / Kcat/Km: 25 mM citrate pH 6.0, 15 min at 25°C, malachite green; for Vmax: 25 mM citrate buffer pH 6.0, 100 mM NaCl, 2 mM DTT, 15 min at 25°C, Biomol Green, 650 nm, Michaelis-Menten fit; for peptide preference: order of peptide substrates, DLAR D1 domain
T1 construct: DLAR 1448-1746; His tag (pET-15b or pET-22b); made in house; host or cells: E. coli BL21(DE3)
T1 sequence (P16621 1448-1746): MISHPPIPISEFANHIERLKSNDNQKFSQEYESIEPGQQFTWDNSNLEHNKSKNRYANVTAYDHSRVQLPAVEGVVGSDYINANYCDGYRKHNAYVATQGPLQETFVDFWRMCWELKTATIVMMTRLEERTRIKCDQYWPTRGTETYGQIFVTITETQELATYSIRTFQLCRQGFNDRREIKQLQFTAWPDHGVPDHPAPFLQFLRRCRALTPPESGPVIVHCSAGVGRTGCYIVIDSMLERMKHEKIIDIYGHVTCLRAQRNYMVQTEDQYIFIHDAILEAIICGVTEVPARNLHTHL
Excerpt: (§1) Substrates of PTPs characterized thus far include the activation loop segments of various kinases and regulatory loops of other signaling proteins. Suitably designed peptide substrates mimic the physiologically relevant substrates of PTPs. In the present study, peptide substrates were designed for DLAR for which more information was available on its interacting partners. […] The five peptides were chosen based on their distinct charge distributions around the central phosphotyrosine residue. The phosphorylated as well as non-phosphorylated peptides were obtained from GL Bioscience, China. The peptides were >95% pure and were used after a single round of desalting using a Sephadex G25 column (GE Healthcare). The concentration of the peptide samples for biochemical studies was ascertained by UV absorption at 268 nm for the pY residue.
(§2) Phosphatase activity of the recombinant PTP domains was determined by using para-Nitrophenylphosphate (pNPP), a small molecule generic substrate, as well as phosphotyrosine containing peptides. The pNPP assay was performed as reported previously, with a modification in the buffer composition (25 mM Citrate, Glycine and HEPES (CGH), pH 6.5, 100 mM NaCl and 2 mM DTT). Phosphatase activity with the phosphotyrosine peptides was ascertained by the malachite green reaction as described for PTPs previously. Briefly, the reaction mixture comprised of 0.01 µM protein incubated with increasing concentrations of different peptides in 25 mM citrate buffer pH 6.0, 100 mM NaCl and 2 mM DTT for 15 min at 25°C. The reaction was stopped by the addition of the Biomol Green reagent (Enzo Life Sciences) and the colour developed after 20 min was quantified at 650 nm. For all the assays, kinetic constants for the steady state catalysis were obtained by fitting the reaction curves to the Michaelis-Menten equation using the nonlinear regression module of Sigma plot software (Systat Software, Inc.).

DLAR D2 = target: T2, DLAR D2 (Drosophila melanogaster, UniProt P16621); test: Peptide preference of the DLAR D2 domain from ratios of kcat/Km (D1D2 vs D1); assay type: biochemical; details: order of peptide substrates, from comparison of kcat/Km of D1D2 with D1
T2 construct: DLAR 1728-2029; His tag (pET-15b or pET-22b); made in house; host or cells: E. coli BL21(DE3)
T2 sequence (P16621 1728-2029): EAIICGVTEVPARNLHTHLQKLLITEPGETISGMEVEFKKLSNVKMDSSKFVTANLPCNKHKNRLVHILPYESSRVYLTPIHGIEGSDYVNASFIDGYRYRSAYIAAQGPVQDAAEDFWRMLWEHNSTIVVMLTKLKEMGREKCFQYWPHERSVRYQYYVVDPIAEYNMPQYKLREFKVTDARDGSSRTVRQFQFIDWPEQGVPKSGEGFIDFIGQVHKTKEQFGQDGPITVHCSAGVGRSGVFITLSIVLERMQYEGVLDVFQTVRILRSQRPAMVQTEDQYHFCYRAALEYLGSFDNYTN
Protocol: as §2
(§3) The difference between the most and least preferred substrate in the case of DLAR D1D2 was much less (∼16.0×10^4 sec^−1 M^−1 between Cuticle and Myospheroid peptides) when compared to DLAR D1 alone (∼130.0×10^4 sec^−1 M^−1 between Insulin Receptor and Abelson peptides). […] A more comprehensive study of this activation mechanism is being reported elsewhere.

PTP99A D1 = target: T3, PTP99A D1 (Drosophila melanogaster, UniProt P35832); test: Dephosphorylation of phosphotyrosine peptides (malachite green), PTP99A D1; details: for Vmax / Kcat / Kcat/Km / Km: 0.01 µM protein; for Vmax: 25 mM citrate buffer pH 6.0, 100 mM NaCl, 2 mM DTT, 15 min at 25°C, Biomol Green, 650 nm, Michaelis-Menten fit; for Kcat / Kcat/Km / Km: 25 mM citrate pH 6.0, 15 min at 25°C, malachite green; for peptide preference: order of peptide substrates
T3 sequence (P35832 450-756): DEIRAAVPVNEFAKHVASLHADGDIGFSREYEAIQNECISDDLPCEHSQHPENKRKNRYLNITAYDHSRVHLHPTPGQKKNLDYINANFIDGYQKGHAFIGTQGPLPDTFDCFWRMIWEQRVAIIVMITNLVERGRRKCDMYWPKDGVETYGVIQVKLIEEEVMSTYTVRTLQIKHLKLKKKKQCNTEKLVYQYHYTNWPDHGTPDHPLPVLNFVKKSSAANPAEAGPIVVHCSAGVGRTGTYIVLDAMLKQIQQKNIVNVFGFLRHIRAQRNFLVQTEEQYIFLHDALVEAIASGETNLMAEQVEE
Excerpt: as §1, §2

PTP99A D2 = target: T4, PTP99A D2 (Drosophila melanogaster, UniProt P35832); test: Peptide preference of the PTP99A D2 domain from ratios of kcat/Km (D1D2 vs D1); assay type: biochemical; details: order of peptide substrates, from comparison of kcat/Km of D1D2 with D1
T4 sequence (P35832 740-1050): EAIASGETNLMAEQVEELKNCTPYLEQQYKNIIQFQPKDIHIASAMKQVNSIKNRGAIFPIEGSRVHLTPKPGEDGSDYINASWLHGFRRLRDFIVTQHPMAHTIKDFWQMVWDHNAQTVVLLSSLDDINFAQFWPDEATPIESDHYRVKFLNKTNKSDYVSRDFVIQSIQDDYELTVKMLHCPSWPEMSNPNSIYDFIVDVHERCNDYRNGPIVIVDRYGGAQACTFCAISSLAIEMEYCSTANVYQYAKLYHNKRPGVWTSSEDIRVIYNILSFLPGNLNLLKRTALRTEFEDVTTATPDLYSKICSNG
Protocol: as §2, §3

Molecule: CC(C)C[C@H](NC(=O)[C@H](C)NC(=O)CNC(=O)[C@H](Cc1ccc(OP(=O)(O)O)cc1)NC(=O)[C@H](CC(=O)O)NC(=O)[C@@H]1CCCN1C(=O)[C@H](CCC(=O)O)NC(=O)[C@H](C)NC(=O)[C@@H](N)[C@@H](C)O)C(=O)N[C@@H](Cc1ccc(O)cc1)C(=O)N[C@@H](CCC(=O)O)C(=O)O [Cuticle peptide] (H-TAEPD[pY]GALYE-OH)
- Km (DLAR D1): 56.5 ± 4.64 µM

Molecule: CDDS[pY]FGNKC (cysteine pairing not given here) [Myospheroid peptide, phosphotyrosine peptide CDDSpYFGNKC from PeptideMine server, obtained from GL Bioscience, >95% pure]
- Vmax (DLAR D1): 29.58 ± 0.84 µmol/min/mg
- Kcat (DLAR D1): 23.66 ± 0.67 s⁻¹
- Kcat/Km (DLAR D1): 30.14 ± 0.06 x 10^4 sec^-1M^-1
- Km (DLAR D1; read-out: Km): 78.5 ± 6.67 µM
- peptide preference (DLAR D1): Insulin receptor peptide>Cuticle peptide>Nervous fingers peptide>Myospheroid peptide>Abelson peptide
- peptide preference (DLAR D2): Insulin Receptor peptide>Nervous fingers peptide>Cuticle peptide>Myospheroid peptide>Abelson peptide
- Vmax (PTP99A D1): 2.72 ± 0.13 µmol/min/mg
- Kcat (PTP99A D1): 1.81 ± 0.08 s⁻¹
- Kcat/Km (PTP99A D1): 20.40 ± 0.59 x 10^2 sec^-1M^-1
- Km (PTP99A D1): 887 ± 102 µM
- peptide preference (PTP99A D1; PTP99A D1 domain): Abelson peptide>Cuticle peptide>Nervous fingers peptide>Myospheroid peptide>Insulin receptor peptide
- peptide preference (PTP99A D2): Nervous fingers peptide>Abelson peptide>Cuticle peptide>Myospheroid peptide>Insulin receptor peptide

Molecule: RDDT[pY]TAHAG [Abelson peptide, phosphotyrosine peptide RDDTpYTAHAG from PeptideMine server, obtained from GL Bioscience, >95% pure]
- Vmax (DLAR D1): 4.95 ± 0.59 µmol/min/mg
- Kcat (DLAR D1): 3.96 ± 0.68 s⁻¹
- Kcat/Km (DLAR D1): 21.77 ± 0.32 x 10^4 sec^-1M^-1
- Km (DLAR D1; read-out: Km): 18.2 ± 8.98 µM
- peptide preference (DLAR D1): Insulin receptor peptide>Cuticle peptide>Nervous fingers peptide>Myospheroid peptide>Abelson peptide
- peptide preference (DLAR D2): Insulin Receptor peptide>Nervous fingers peptide>Cuticle peptide>Myospheroid peptide>Abelson peptide
- Vmax (PTP99A D1): 0.83 ± 0.05 µmol/min/mg
- Kcat (PTP99A D1): 0.55 ± 0.04 s⁻¹
- Kcat/Km (PTP99A D1): 45.19 ± 0.29 x 10^2 sec^-1M^-1
- Km (PTP99A D1): 122 ± 26.6 µM
- difference between the most and least preferred substrate (kcat/Km) (PTP99A D1; PTP99A D1 domain, between Abelson peptide and Insulin Receptor peptides): ~3000 M⁻¹ s⁻¹
- peptide preference (PTP99A D1; PTP99A D1 domain): Abelson peptide>Cuticle peptide>Nervous fingers peptide>Myospheroid peptide>Insulin receptor peptide
- peptide preference (PTP99A D2): Nervous fingers peptide>Abelson peptide>Cuticle peptide>Myospheroid peptide>Insulin receptor peptide

Molecule: VIGD[pY]VCRLCK (cysteine pairing not given here) [Nervous Fingers peptide, phosphotyrosine peptide VIGDpYVCRLCK from PeptideMine server, obtained from GL Bioscience, >95% pure]
- Vmax (DLAR D1): 37.5 ± 1.4 µmol/min/mg
- Kcat (DLAR D1): 30 ± 1.12 s⁻¹
- Kcat/Km (DLAR D1): 78.51 ± 0.09 x 10^4 sec^-1M^-1
- Km (DLAR D1; read-out: Km): 38.2 ± 5.05 µM
- peptide preference (DLAR D1): Insulin receptor peptide>Cuticle peptide>Nervous fingers peptide>Myospheroid peptide>Abelson peptide
- peptide preference (DLAR D2): Insulin Receptor peptide>Nervous fingers peptide>Cuticle peptide>Myospheroid peptide>Abelson peptide
- Vmax (PTP99A D1): 4.42 ± 0.14 µmol/min/mg
- Kcat (PTP99A D1): 2.94 ± 0.10 s⁻¹
- Kcat/Km (PTP99A D1): 21.61 ± 0.24 x 10^2 sec^-1M^-1
- Km (PTP99A D1): 1360 ± 94.7 µM
- peptide preference (PTP99A D1; PTP99A D1 domain): Abelson peptide>Cuticle peptide>Nervous fingers peptide>Myospheroid peptide>Insulin receptor peptide
- peptide preference (PTP99A D2): Nervous fingers peptide>Abelson peptide>Cuticle peptide>Myospheroid peptide>Insulin receptor peptide
